# Experimental data published in patent US20060122191A1, “N-(indolethyl-)cycloamine compounds” (priority 2002, published 2006).
# Where a name gives a salt, the structure may show the parent alone. Read-outs that look alike come from different tables or passages of the source.
# Columns and labels:
# 5-HT1A = target: T1, 5-HT1A (Rattus norvegicus, UniProt P19327); experiment: 5-HT1A receptor binding
# T1 construct: from tissue
# T1 sequence (P19327 1-422): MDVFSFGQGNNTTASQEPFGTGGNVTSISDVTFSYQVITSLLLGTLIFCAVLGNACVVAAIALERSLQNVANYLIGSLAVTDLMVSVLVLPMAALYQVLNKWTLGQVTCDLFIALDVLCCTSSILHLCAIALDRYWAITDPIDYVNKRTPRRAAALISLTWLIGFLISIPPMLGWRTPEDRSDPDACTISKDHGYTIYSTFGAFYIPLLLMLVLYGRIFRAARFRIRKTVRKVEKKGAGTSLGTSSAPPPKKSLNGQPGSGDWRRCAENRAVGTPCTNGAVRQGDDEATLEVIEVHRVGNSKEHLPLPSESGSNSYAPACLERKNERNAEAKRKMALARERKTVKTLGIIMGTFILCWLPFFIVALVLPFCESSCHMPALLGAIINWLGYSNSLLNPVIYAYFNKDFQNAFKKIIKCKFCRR
# From the text: (§1) In-vitro evidence of interaction with the above-mentioned receptors can be provided, for example, as described in the following references: • 5-HT1A: Cossery J. M., Gozlan H., Spampinato U., Perdicakis C., Guillaumet G., Pichat L., Hamon M., 1987. The selective labeling of central 5-HT1A receptor binding sites by [3H]5-methoxy-3-(di-n-propylamino)chroman. Eur. J. Pharmacol. 140,143-55. • 5-HT2A: Klockow M., Greiner H. E., Haase A., Schmitges C.-J., Seyfried C. 1986. Studies on the receptor profile of bisoprolol. Arzneimittelforschung 36,197-200. • SSRI: Wong, D T, Bymaster, F P, Mayle, D A. Reid, L R, Krushinski, J H, Robertson, D W. LY248686, a new inhibitor of serotonin and norepinephrine uptake. Neuropsychopharmacology 8, 23-33, 1993
# (§2) As illustrative of two compounds of the formula I, receptor binding constants determined by the test systems described at the outset are indicated below: […]
# 5-HT2A = 5-HT2A (UniProt P14842); experiment: 5-HT2A receptor binding
# From the text: as §1, §2
# [1] = target: T2, serotonin reuptake (SSRI) (Rattus norvegicus, UniProt P31652); experiment: Serotonin reuptake inhibition (SSRI), receptor binding studies; assay type: biochemical
# T2 construct: from tissue
# T2 sequence (P31652 whole entry): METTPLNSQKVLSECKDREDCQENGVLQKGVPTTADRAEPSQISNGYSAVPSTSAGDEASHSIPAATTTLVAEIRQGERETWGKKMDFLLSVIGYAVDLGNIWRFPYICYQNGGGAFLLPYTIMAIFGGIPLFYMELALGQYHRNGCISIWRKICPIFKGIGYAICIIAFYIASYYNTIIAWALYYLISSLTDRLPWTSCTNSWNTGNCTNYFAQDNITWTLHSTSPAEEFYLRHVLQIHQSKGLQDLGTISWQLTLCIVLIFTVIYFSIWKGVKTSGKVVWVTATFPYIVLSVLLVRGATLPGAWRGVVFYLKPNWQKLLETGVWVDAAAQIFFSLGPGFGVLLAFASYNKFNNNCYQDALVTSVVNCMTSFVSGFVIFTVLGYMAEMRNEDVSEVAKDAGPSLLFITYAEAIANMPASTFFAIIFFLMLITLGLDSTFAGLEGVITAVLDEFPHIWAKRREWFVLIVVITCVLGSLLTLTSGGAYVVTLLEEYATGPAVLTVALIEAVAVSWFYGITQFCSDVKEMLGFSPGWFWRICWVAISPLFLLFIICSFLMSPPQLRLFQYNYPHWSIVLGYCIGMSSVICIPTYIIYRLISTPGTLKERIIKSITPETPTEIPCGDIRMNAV
# From the text: as §1, §2
structure (smiles),measurement,setting,value
"N#Cc1ccc2[nH]cc(CCN3CCN(c4cccc5nsnc45)CC3)c2c1 [b), 3-[2-(4-Benzo-1,2,5-thiadiazol-4-yl-piperazin-1-yl)ethyl]-1H-indole-5-carbonitrile]",Ki,"5-HT1A; test system per Cossery et al. 1987, read-out: receptor binding constant 5-HT1A",110 nM
same,Ki,5-HT2A; read-out: receptor binding constant 5-HT2A; test system per Klockow et al. 1986,7.3 nM
same,Ki,[1],4.3 nM
"N#Cc1ccc2[nH]cc(CCN3CCN(c4cccc5c4OCCO5)CC3)c2c1 [a), 3-{2-[4-(2,3-Dihydrobenzo-1,4-dioxin-5-yl)piperazin-1-yl]ethyl}-1H-indole-5-carbonitrile]",Ki,5-HT1A,17 nM
same,Ki,5-HT2A; test system per Klockow et al. 1986; read-out: receptor binding constant 5-HT2A,11 nM
same,Ki,"[1]; test system per Wong et al. 1993, read-out: receptor binding constant SSRI",11 nM
"N#Cc1ccc2[nH]cc(CCN3CCN(c4cccc5c4OCCO5)CC3)c2c1 (as salt: hydrochloride) [a), 3-{2-[4-(2,3-Dihydrobenzo-1,4-dioxin-5-yl)piperazin-1-yl]ethyl}-1H-indole-5-carbonitrile]",melting point,,277.5 to 278.5 °C
